In one data set the test system is male germ cells. The settings on record: S1P treatment to mouse testes (Otala et al., 2004); cited from earlier work.
Data set [1] concerns human sperm. The data set is described as follows: Alkaline comet assay on human sperm. Format: cell-based. The settings on record: n=3, mean±SEM.
The subject of another data set is MRE11. The data set is described as follows: qRT-PCR DNA DSB repair gene expression in mouse sperm lysates, MRE11. The class given is cell-based. How it is done:
(§1) Treatment was performed with genotoxic stress (1 mM H2O2), S1P (200 μM), and S1P with genotoxic stress and control in culture for one hour. Also, the use of an ATM inhibitor was utilized (10 μM) (KU-55593, Abcam) (Li et al., 2014). We assessed DNA damage, apoptosis, and chromatin integrity. We also studied the DNA DSB repair gene expression by qRT-PCR in sperm lysates.
(§2) Sperm pellets previously snap-frozen in PBS were thawed. RNA was extracted using the trizol method (Rio et al., 2010). The quality and quantity of the RNA were measured with NanoDrop 2000 from Thermo Scientific. RNA (2 μg) from each sample was taken for reverse transcription with dTVN and N9 primers and SuperScript III reverse transcriptase, all procured from Invitrogen. The resulting cDNA was used to perform real-time qPCR with SYBR Green on an Applied Biosystems 7900HT Real-Time PCR machine was used. To determine the relative expression of various DNA repair genes in mouse sperm, we used the ΔΔCt method, which makes use of the expression of housekeeping genes. GAPDH was used as housekeeping gene. Primers were procured from Integrated DNA technologies (IDT) (Table 3).
(In general: Real-time PCR tracks product formation cycle by cycle.)

A further data set relates to ATM. The data set is described as follows: qRT-PCR DNA DSB repair gene expression in mouse sperm lysates, ATM. The class given is cell-based. The method, then: as §1, §2
Data set [2] deals with mouse sperm. The data set is described as follows: DNA DSBs by γH2AX expression in S1P-treated mouse sperm. The class given is cell-based. The settings on record: for DNA DSBs as reported by γH2AX expression: culture 1 hour, n=9, mean±SEM. The method, then:
as §1
DNA damage assessment of testicular tissue from mice utilized a Ser139 phosphorylation-specific γH2AX antibody (IHC-00059; Bethyl Laboratories) performed with enzymatic diaminobenzidine staining (Vector). Histone H2AX, one of the several variants of the nucleosome core histone H2A, becomes phosphorylated on Ser139 in response to DSBs (γH2AX). Within seconds of DSB formation, γH2AX foci are formed at the site of DNA damage, which can be detected by confocal microscopy or immunohistochemistry to quantify DNA damage. Foci of γH2AX represent DDR in a 1:1 manner, enabling sensitive quantification of potential DSBs (Katsube et al., 2014). Primordial follicles containing a γH2AX-positive oocyte were considered to be DNA-damaged (Rogakou et al., 1998). Sperm were assessed for DNA damage with antibody to γH2AX (613402; BioLegend) and secondary antibody Alexa Fluor 488 (A-11029; Invitrogen), followed by nuclear counterstaining with diamidino-2-phenylindole (DAPI; Fisher Scientific). Immunofluorescence for SD sperm samples was measured by FACScan flow cytometer (Becton-Dickinson) or laser scanning cytometry (Halicka et al., 2008).

The next data set has as its system oocytes. The note with it: ex vivo (Morita et al., 2000; Tilly and Kolesnick, 2007); cited from earlier work.
The subject of data set [3] is mouse sperm. As to the kind of experiment: Apoptosis by FLICA (activated caspases) in mouse sperm. Format: cell-based. The settings on record: as a result of S1P treatment. The method, then: as §1
Levels of activated caspases were detected in mouse sperm samples using fluorescein-labelled inhibitors of caspases (FLICA). This cell-permeable and non-cytotoxic caspase inhibitor binds covalently to active caspases. The fluorogenic substrate becomes fluorescent on cleavage by the caspases. The inhibitors were used with the appropriate controls according to the kit instructions provided by the manufacturer (ImmunoChemistry Technologies). A 150-fold stock solution of the inhibitor was prepared in dimethylsulphoxide (DMSO). It was further diluted in phosphate-buffered saline (PBS) to yield a 30-fold working solution. Sperm samples (300 μl) were incubated at 37° C. for 1 hr with 10 μl of the working solution and subsequently washed twice with PBS. After labeling with FLICA, 1% propidium iodide (PI) in PBS was used to assess dead cells. All samples were analyzed directly by flow cytometry to detect caspase activity (Bedner et al., 2000; Darzynkiewicz et al., 2011).

The subject of another data set is BRCA1. As to the kind of experiment: qRT-PCR DNA DSB repair gene expression in mouse sperm lysates, BRCA1. The class given is cell-based. The method, then: as §1, §2
In another data set the test system is RAD51. As to the kind of experiment: qRT-PCR DNA DSB repair gene expression in mouse sperm lysates, RAD51. The class given is cell-based. The method, then:
as §1, §2

For data set [4] the following is noted: in vivo continuous or intermittent administration to mice (Soleimani et al., 2011; Li et al, 2014); cited from earlier work.
For data set [5], the system named is mouse sperm. The data set is described as follows: Susceptibility of DNA to denaturation by AO staining in mouse sperm. The class given is cell-based. The settings on record: as a result of S1P treatment. How it is done: as §1
DNA integrity of mouse sperm were assessed via flow cytometry using acridine orange (AO) staining (Hawley and Hawley, 2004). AO fluoresces green when attached to native DNA, and fluoresces red when attached to fragmented DNA. Basically, after induction of denaturation by heat or acid the denatured DNA (ssDNA) stains metachromatically red with AO while dsDNA stains green. When the sample has ≥50% green fluorescence, the sample is of good quality. Similarly, AO was used to assess sperm chromatin structure by measuring its intensity of fluorescence, which is the ratio of red/(red+green) yields the percentage of DNA fragmentation (also known as DNA fragmentation index, or DFI %).

Data set [6] deals with mouse sperm. The data set is described as follows: Reactive oxygen species in mouse sperm. The class given is cell-based. The settings on record: as a result of S1P treatment. How it is done: as §1
The subject of data set [7] is human sperm. The data set is described as follows: Neutral comet assay on human sperm. Format: cell-based.
The next data set has as its system RAD50. The data set is described as follows: qRT-PCR DNA DSB repair gene expression in mouse sperm lysates, RAD50. The settings on record: S1P treatment, no ATM inhibitor. The class given is cell-based. The method, then: as §1, §2
The mark [8] stands for this setting: S1P treatment with ATM inhibitor.
Setting [9] is: S1P treatment, no ATM inhibitor.
Setting [10] is: S1P with genotoxic stress, with ATM inhibitor, n=8, mean±SEM.

Each structure is given as a SMILES string. Values joined by “and” are separate entries in the source; they are usually repeats but may differ in a detail not shown here. Equal values may be shown once.

Take `CCCCCCCCCCCCC/C=C/[C@@H](O)[C@@H](N)COP(=O)(O)O` [S1P, sphingosine 1 phosphate]: in the data set on male germ cells, the “male germ cell loss by radiation-induced injury” value was “decreased”. For the same compound, the “percent tail DNA, alkaline comet” value was 26.1±1.19% with human sperm [1] (S1P with H2O2, with ATM inhibitor); 13.2±0.51% and 13.2±1.25% with human sperm [1] (S1P with H2O2, without ATM inhibitor). Moreover, the “MRE11 expression (qRT-PCR)” value with MRE11 (setting [8]) and in the data set on MRE11 (setting [9]) was “no significant difference” in each case. In addition, the “ATM expression (qRT-PCR)” value in the data set with ATM (setting [9]) is given as “no significant difference”. Further, the “ATM gene expression (qRT-PCR)” value in the data set with ATM (setting [10]) worked out at 0.042±0.011. In addition, the “DNA DSBs as reported by γH2AX expression” value was determined as 8.29±1.45 in the data set on mouse sperm [2] (S1P (200 μM) in the presence of genotoxic stress (1 mM H2O2)) and 8.94±1.48 with mouse sperm [2] (S1P alone (200 μM)). For the same compound, the “DNA integrity (protective effect of S1P)” value in the data set on mouse sperm [2] (in the presence of an ATM inhibitor (10 μM KU-55593), n=9) was “ATM inhibition reversed the protective effects”. Moreover, in the data set on oocytes, the “ceramide induced apoptosis in oocytes” value is listed as “block ceramide induced apoptosis”. The “percentage of apoptosis by FLICA” value in the data set on mouse sperm [3] was “no significant difference”. The “BRCA1 expression (qRT-PCR)” value with BRCA1 (S1P alone, n=9, mean±SEM) is recorded as 0.471±0.602; with BRCA1 (S1P in the presence of genotoxic stress, n=9, mean±SEM), 0.755±0.378; in the data set on BRCA1 (setting [8]), “blocked the S1P induced increase”. The “RAD51 expression (qRT-PCR)” value in the data set with RAD51 (setting [9]) is “no significant difference”; in the data set with RAD51 (setting [10]), 0.015±0.056. The side effects entry in [4] is given as “no detectable side effects”. Also, the “susceptibility of DNA to denaturation by AO staining” value in the data set with mouse sperm [5] is given as “no significant difference”. For the same compound, the reactive oxygen species result in the data set with mouse sperm [6] is “no significant difference”. For the same compound, the “DNA damage, neutral comet” value in the data set with human sperm [7] (S1P-treated human sperm with ATM inhibitor) and with human sperm [7] (S1P-treated human sperm without ATM inhibitor) was “no significant difference” in each case. Also, the “RAD50 expression (qRT-PCR)” value in the data set with RAD50 was “no significant difference”.

(Values after patent US20190183910A1, “ENHANCING DNA REPAIR AND PREVENTING AGING AND ITS CONSEQUENCES IN REPRODUCTIVE AND OTHER CELLS” (NEW YORK MEDICAL COLLEGE, priority 2016, published 2019).)
